This note sets out measurements from patent US4565865A, “Phospholipid carbamates” (Takeda Chemical Industries, Ltd., priority 1980, dated 1986).

In brackets after ≈: the same amount, converted by molar mass. Where two headings read alike, the source gives them in different places.

Common to all, as to assay type: cell-based
In one experiment the test system is Tetrahymena pyriformis W. As to the kind of experiment: Antiprotozoal activity, MIC by serial broth dilution technique. Conditions: 28° C., 44-48 hours, tryptose peptone medium, pH 7.0; for MIC: Tetrahymena pyriformis.
In another experiment the test system is Cryptococcus neoformans. The experiment is described as follows: Antifungal activity, paper disc zone of inhibition. The conditions noted are these: 37° C., 2 days, agar, 8 mm paper disc, 2 mg/ml solution; for zone of inhibition at 2000 µg/mL: Cryptococcus neoformans, 48 h. On the procedure:
For the antifungal activity data given in Table 1, Cryptococcus neoformans is used as the test microorganism and incubated at 37° C. for 2 days in an agar medium with a paper disc (8 mm in diameter) immersed in an aqueous 2 mg/ml solution of a test compound and air-dried as placed on said medium, and the zone of inhibition is measured. The judgement criteria are as follows: "-" means less than 9 mm in inhibition zone diameter, "±" means 9-11 mm, "+" means 12-20 mm, and "++" means more than 20 mm.

Experiment [1] has as its system mouse spontaneous myelolid leukemia M1 cells (resistant clone). The experiment is described as follows: Growth inhibition (GD50) of mouse leukemia M1 cells.
Experiment [2] has as its system Rauscher virus-induced promyelocytic leukemia cells R 453. The experiment is described as follows: Growth inhibition (GD50) of Rauscher virus-induced leukemia R 453 cells. Conditions: Mus musculus.
For experiment [3], the system named is human promyelocytic leukemia cells HL-60. The experiment is described as follows: Growth inhibition (GD50) of human promyelocytic leukemia HL-60 cells.
The test system of a further experiment is Pyricularia oryzae. As to the kind of experiment: microbe, parasite or virus in culture.
The test system of a further experiment is Cochliobolus miyabeanus. The experiment is described as follows: Antifungal activity, MIC by serial dilution in agar. Conditions: Bipolaris oryzae.
The subject of the next experiment is Aspergillus. The experiment is described as above. Conditions: 1% glucose bouillon agar. The method, then: (§1) For the antifungal activity data shown in Table 2, various typical plant-disease-causing fungi are used as the test fungi and the minimum inhibitory concentration (MIC) are determined by the serial dilution technique using a 1% glucose bouillon agar medium.

The subject of a further experiment is Botrytis cinerea. The description is as above. Conditions: 1% glucose bouillon agar. The method, then: as §1
The test system of a further experiment is Gibberella fujikuroi. The description is as above. The conditions noted are these: Fusarium fujikuroi, 1% glucose bouillon agar. On the procedure: as §1
For the next experiment, the system named is Penicillium. Described as above. The conditions noted are these: 1% glucose bouillon agar. On the procedure:
as §1

A further experiment relates to Red yeast. Described as above. The conditions noted are these: 1% glucose bouillon agar. The method, then:
as §1

In a further experiment the test system is Leptosphaeria salvinii. Described as above. The conditions noted are these: Nakataea oryzae.
In another experiment the test system is Brewer's yeast. Described as above.
Setting [4] is: four successive population doublings of untreated cells, trypan blue, mean of four separate experiments.

“3-[8,11,14(Z,Z,Z)-Heptadecatrienylcarbamoyloxy]propyl 2-aminoethyl phosphate [Example 18]”: in the experiment on Tetrahymena pyriformis W, the “Tetrahymena pyriformis W MIC” value lay within 2 to 4 µg/mL. The “Cryptococcus neoformans Zone of inhibition” value in the experiment on Cryptococcus neoformans was “+ (12-20 mm)”.

On to `CCCCCCCCCCCCCCCCCNC(=O)OCCCOP(=O)([O-])OCC[N+](C)(C)C` [Example 4, 3-(N-n-Heptadecylcarbamoyloxy)propyl 2-trimethylammonioethyl phosphate], for which the IC50 (in general, the point on the concentration scale where inhibition reaches its midpoint) in experiment [1] is 3 to 4 µg/mL; in experiment [2] it was 2 to 3 µg/mL; in experiment [3], 1 µg/mL. In addition, the MIC in the experiment with Tetrahymena pyriformis W was 1 to 2 µg/mL; in the experiment on Pyricularia oryzae, 6.25 µg/mL; against Cochliobolus miyabeanus it was over 100 µg/mL; in the experiment with Aspergillus, over 100 µg/mL; against Botrytis cinerea it was 12.5 µg/mL; with Gibberella fujikuroi it was over 100 µg/mL. For the same molecule, the MIC was over 100 µg/mL in the experiment on Penicillium, over 100 µg/mL in the experiment with Red yeast, 50 µg/mL against Leptosphaeria salvinii and over 100 µg/mL against Brewer's yeast. In addition, the zone of inhibition – broadly, the extent of the growth-free halo in a diffusion test – at 2000 µg/mL with Cryptococcus neoformans was 12 to 20 mm.

Turning to `COC1=C(OC)C(=O)C(CCCCCCCCCNC(=O)OCCCOP(=O)([O-])OCC[N+](C)(C)C)=C(C)C1=O` [Example 8, 3-[N-(9-(2,3-Dimethoxy-6-methyl-1,4-benzoquinon-5-yl)nonyl)carbamoyloxy]propyl 2-trimethylammonioethyl phosphate], the MIC against Tetrahymena pyriformis W came to 40 µg/mL.

`CCCCCCCCCCCCCCCCCCNC(=O)OCC(COP(=O)([O-])OCC[N+](C)(C)C)OC` (stereo not drawn) [Example 11, 3-(N-n-Octadecylcarbamoyloxy)-2-methoxypropyl 2-trimethylammonioethyl phosphate]: in [3] (setting [4]), the IC50 came out at 0.6 µg/mL. In the experiment with Tetrahymena pyriformis W, this molecule showed an MIC of 2 to 4 µg/mL. Further, the zone of inhibition at 2000 µg/mL in the experiment with Cryptococcus neoformans was 12 to 20 mm.

Turning to `CCCCCCCCCCCCCCCCCCNC(=O)OCC(COP(=O)([O-])OCC[n+]1ccccc1)OC` (stereo not drawn) [Example 12, 3-(N-n-Octadecylcarbamoyloxy)-2-methoxypropyl 2-pyridinioethyl phosphate], the IC50 in experiment [3] (setting [4]) was 1 µg/mL. Moreover, the MIC against Tetrahymena pyriformis W amounted to 4 µg/mL. Besides, in the experiment on Cryptococcus neoformans, the zone of inhibition at 2000 µg/mL is 12 to 20 mm.

`CCCCCCCCCCCCCCCCCCNC(=O)OCC(COP(=O)([O-])OCC[n+]1ccsc1)OC` (stereo not drawn) [Example 13, 3-(N-n-Octadecylcarbamoyloxy)-2-methoxypropyl 2-thiazolioethyl phosphate] showed an MIC in the experiment with Tetrahymena pyriformis W of 2 to 4 µg/mL. In addition, the zone of inhibition at 2000 µg/mL with Cryptococcus neoformans lay in the range of 12 to 20 mm.

Turning to `CCCCCCCCCCCCCCCCCCNC(=O)OCCOP(=O)([O-])OCC[N+](C)(C)C` [Example 15, 2-(N-Octadecylcarbamoyloxy)ethyl 2-trimethylammonioethyl phosphate], in experiment [3] (setting [4]), half-maximal inhibition (IC50) was put at 2.3 µg/mL. For the same molecule, the MIC in the experiment with Tetrahymena pyriformis W fell in the range of 1 to 2 µg/mL. The zone of inhibition at 2000 µg/mL with Cryptococcus neoformans is 12 to 20 mm.

For the molecule `CCC=CCC=CCC=CCCCCCCCNC(=O)OCCCOP(=O)([O-])OCC[N+](C)(C)C` [Example 17, 3-(N-8,11,14-Heptadecatrienylcarbamoyloxy)propyl 2-trimethylammonioethyl phosphate], the IC50 in experiment [3] (setting [4]) worked out at 2 µg/mL. Moreover, the MIC against Tetrahymena pyriformis W was at most 1 µg/mL; in the experiment on Pyricularia oryzae it was 25 µg/mL; against Cochliobolus miyabeanus, 25 µg/mL; with Aspergillus, 50 µg/mL; in the experiment with Botrytis cinerea, 12.5 µg/mL; in the experiment with Gibberella fujikuroi, 50 µg/mL. The MIC in the experiment with Penicillium is 50 µg/mL; against Red yeast, 100 µg/mL; in the experiment on Leptosphaeria salvinii, 50 µg/mL; against Brewer's yeast, 100 µg/mL. In the experiment on Cryptococcus neoformans, this molecule came in with a zone of inhibition at 2000 µg/mL of over 20 mm.

Regarding `CCCCC/C=C\C/C=C\CCCCCCCNC(=O)OCCCOP(=O)([O-])OCC[N+](C)(C)C` [Example 20], inhibition in [3] (setting [4]) was half-maximal at 4.8 µg/mL (≈ 9.25 µM) (IC50). The MIC against Tetrahymena pyriformis W is 2 µg/mL (≈ 3.86 µM). Further, in the experiment on Cryptococcus neoformans, the zone of inhibition at 2000 µg/mL lay within 12 to 20 mm.

As to `CCCCC/C=C\C/C=C\CCCCCCCNC(=O)OCCOP(=O)([O-])OCC[N+](C)(C)C` [Example 21, 2-[8,11(Z,Z)-Heptadecadienylcarbamoyloxy]ethyl 2-trimethylammonioethyl phosphate], the MIC in the experiment on Tetrahymena pyriformis W came to 2 µg/mL. The zone of inhibition at 2000 µg/mL in the experiment on Cryptococcus neoformans lay within 9 to 11 mm.

As to `CCCCC/C=C\C/C=C\CCCCCCCNC(=O)OCCCOP(=O)(O)OCCN` [Example 22, 3-[8,11(Z,Z)-Heptadecadienylcarbamoyloxy]propyl 2-aminoethyl phosphate], the IC50 in experiment [3] (setting [4]) was 4.3 µg/mL. This molecule displayed an MIC in the experiment on Tetrahymena pyriformis W of at most 1 µg/mL. This molecule also yielded a zone of inhibition at 2000 µg/mL in the experiment with Cryptococcus neoformans of 9 to 11 mm.

With `CCCCCCCCCCCCCNC(=O)OCCCOP(=O)([O-])OCC[N+](C)(C)C` [Example 23, 3-(N-Tridecylcarbamoyloxy)propyl 2-trimethylammonioethyl phosphate], the MIC with Tetrahymena pyriformis W was at most 0.1 µg/mL; in the experiment with Pyricularia oryzae, 6.25 µg/mL; with Cochliobolus miyabeanus it was 12.5 µg/mL; with Aspergillus, 12.5 µg/mL; in the experiment on Botrytis cinerea it was 6.25 µg/mL; in the experiment with Gibberella fujikuroi it was 25 µg/mL. For the same molecule, the MIC with Penicillium, in the experiment on Red yeast, in the experiment on Leptosphaeria salvinii and against Brewer's yeast was 12.5 µg/mL each time. In addition, the zone of inhibition at 2000 µg/mL in the experiment on Cryptococcus neoformans is 12 to 20 mm.

Consider `CCCCCCCCCCCCCCNC(=O)OCC(COP(=O)(O)OCCN)OC` (stereo not drawn) [Example 25, 3-(N-Tetradecylcarbamoyloxy)-2-methoxypropyl 2-aminoethyl phosphate], for which the IC50 in experiment [3] lay in the range of 2 to 3 µg/mL. In addition, the MIC against Tetrahymena pyriformis W is at most 1 µg/mL; with Pyricularia oryzae, 6.25 µg/mL; against Cochliobolus miyabeanus it was over 100 µg/mL; with Aspergillus, 25 µg/mL; in the experiment with Botrytis cinerea it was 6.25 µg/mL; in the experiment on Gibberella fujikuroi, 50 µg/mL. Also, the MIC against Penicillium was 25 µg/mL; in the experiment with Red yeast, 50 µg/mL; in the experiment on Leptosphaeria salvinii it was 100 µg/mL; in the experiment on Brewer's yeast, 25 µg/mL. The zone of inhibition at 2000 µg/mL in the experiment with Cryptococcus neoformans was over 20 mm.

`CCCCCCCCCCCCCCNC(=O)OCC(COP(=O)([O-])OCC[N+](C)(C)C)OC` (stereo not drawn) [Example 26, 3-(N-Tetradecylcarbamoyloxy)-2-methoxypropyl 2-trimethylammonioethyl phosphate] displayed an IC50 in [3] of 2 to 3 µg/mL. Further, the MIC against Tetrahymena pyriformis W was 0.2 µg/mL; against Pyricularia oryzae, 3.12 µg/mL; in the experiment on Cochliobolus miyabeanus it was 12.5 µg/mL; in the experiment on Aspergillus it was 12.5 µg/mL; against Botrytis cinerea, 3.12 µg/mL; with Gibberella fujikuroi, 12.5 µg/mL. The MIC with Penicillium was 12.5 µg/mL; in the experiment on Red yeast, 25 µg/mL; with Leptosphaeria salvinii (Leptosphaeria salvinii, 1% glucose bouillon agar, read-out: MIC), 6.25 µg/mL; in the experiment with Brewer's yeast (Brewer's yeast, 1% glucose bouillon agar, read-out: MIC), 6.25 µg/mL. This molecule had a zone of inhibition at 2000 µg/mL in the experiment with Cryptococcus neoformans of 12 to 20 mm.

Regarding `CCCCCCCCCCNC(=O)OCC(COP(=O)(O)OCCN)OC` (stereo not drawn) [Example 28, 3-(N-Decylcarbamoyloxy)-2-methoxypropyl 2-aminoethyl phosphate], the MIC against Tetrahymena pyriformis W came out at 2 µg/mL. In addition, in the experiment with Cryptococcus neoformans, the zone of inhibition at 2000 µg/mL was under 9 mm.

Take `CCCCCCCCCCNC(=O)OCC(COP(=O)([O-])OCC[N+](C)(C)C)OC` (stereo not drawn) [Example 29, 3-(N-Decylcarbamoyloxy)-2-methoxypropyl 2-trimethylammonioethyl phosphate]: the MIC against Tetrahymena pyriformis W was determined as 2 µg/mL. Also, in the experiment with Cryptococcus neoformans, the zone of inhibition at 2000 µg/mL was 9 to 11 mm.

As to `CCCCCCCCCCCCNC(=O)OCCCOP(=O)([O-])OCC[N+](C)(C)C` [Example 31, 3-N-Dodecylcarbamoyloxypropyl 2-trimethylammonioethyl phosphate], the MIC is at most 1 µg/mL against Tetrahymena pyriformis W; 12.5 µg/mL in the experiment with Pyricularia oryzae; 12.5 µg/mL against Cochliobolus miyabeanus; 12.5 µg/mL with Aspergillus; 12.5 µg/mL in the experiment with Botrytis cinerea; 50 µg/mL against Gibberella fujikuroi. The MIC in the experiment with Penicillium was 12.5 µg/mL; against Red yeast, 25 µg/mL; against Leptosphaeria salvinii, 25 µg/mL; with Brewer's yeast, 12.5 µg/mL. This molecule gave a zone of inhibition at 2000 µg/mL in the experiment with Cryptococcus neoformans of 12 to 20 mm.

For the molecule `CCCCCCCCCCCCNC(=O)OCCCOP(=O)(O)OCCN` [Example 32], the MIC in the experiment on Tetrahymena pyriformis W was at most 1 µg/mL. In the experiment on Cryptococcus neoformans, this molecule gave a zone of inhibition at 2000 µg/mL of 12 to 20 mm.

As to `CCCCCCCCCCCCCCNC(=O)OCCCOP(=O)([O-])OCC[N+](C)(C)C` [Example 36, 3-N-Tetradecylcarbamoyloxypropyl 2-trimethylammonioethyl phosphate], the MIC is at most 1 µg/mL against Tetrahymena pyriformis W; 3.12 µg/mL in the experiment with Pyricularia oryzae; 25 µg/mL in the experiment on Cochliobolus miyabeanus; 12.5 µg/mL in the experiment with Aspergillus; 12.5 µg/mL in the experiment on Botrytis cinerea; 12.5 µg/mL with Gibberella fujikuroi. In addition, the MIC in the experiment on Penicillium was 12.5 µg/mL; against Red yeast, 25 µg/mL; with Leptosphaeria salvinii, 6.25 µg/mL; against Brewer's yeast, 6.25 µg/mL. The zone of inhibition at 2000 µg/mL with Cryptococcus neoformans is over 20 mm.
